Measurements published in US20260042734A1, “HETEROCYCLIC RING-SUBSTITUTED AROMATIC COMPOUND, PREPARATION METHOD THEREFOR, AND USE THEREOF” (SHANGHAI HENLIUS BIOTECH, INC., priority 2023, published 2026).

Target: human Kv1.3 (hKv1.3) channels (Homo sapiens (Human), UniProt P22001)
Assay: Electrophysiological (whole-cell patch clamp) determination of inhibitory activity on Kv1.3 channels
Format: cell-based
Details: HEK293T cells expressing hKv1.3; for inhibition at 0.01 µM: HEK-293T, read-out: 10 nM inhibition rate (Kv1.3)
Method: Test Example 1: Determination of Inhibitory Activity of Compounds on Kv1.3 (hKv1.3) Channels
Electrophysiological Testing
Potassium currents were measured using HEK293T cells expressing human Kv1.3 (hKv1.3) channels.
Prior to the start of electrophysiological experiments, Kv1.3 cell lines should be maintained within 70% of the maximum density in the logarithmic growth phase. All reagents should be pre-warmed to 37° C. before use. • 1) Aspirate the spent medium from the 6 cm culture dish. • 2) Add 1 mL of PBS, gently rock the dish to rinse the bottom, and then remove the PBS. • 3) Add 1 mL of trypsin, and gently rock the dish to ensure the trypsin covers all the cells. • 4) Incubate at 37° C. for 2-3 minutes, and then gently pipette the cells to suspend the adherent cells. • 5) Transfer the cell suspension to a new centrifuge tube and centrifuge at 1000 rpm for 5 minutes. Adjust the cell concentration to 2×10^3 cells/mL, and then seed 300 μL of the cell suspension into each well of a 24-well plate containing cell climbing slides. Perform patch clamp experiments after the cells adhered properly.
The intracellular and extracellular solutions used were designed to mimic the cell physiological ionic composition.
Kv1.3 extracellular solution: 137 mM NaCl, 1 mM MgCl2·6H2O, 4 mM KCl, 1.8 mM CaCl2·2H2O, 10 mM D-Glucose, 10 mM HEPES, pH adjusted to 7.4 with NaOH.
Kv1.3 intracellular solution: 140 mM KCl, 10 mM EGTA, 5 mM MgCl2·6H2O, 10 mM HEPES, […], pH adjusted to 7.2 with KOH.
Test Compound Dissolution
• 1) The test compound was dissolved in DMSO to prepare a 30 mM stock solution. • 2) The stock solution of the test compound was serially diluted with DMSO to obtain secondary stock solutions at concentrations of 300 μM, 100 μM, 30 μM, 10 μM, and 3 μM. • 3) 10 μL of each secondary stock solution was diluted into 10 mL of extracellular solution to achieve final concentrations of 300 nM, 100 nM, 30 nM, 10 nM, and 3 nM for electrophysiological testing.
Kv1.3 potassium current data were collected and stored on a computer using Patchmaster software via an EPC-10 amplifier. • 1) The cell climbing slide was removed from the cell culture dish using forceps, immersed with extracellular solution, and placed into the bath chamber on the stage of an inverted microscope. • 2) Glass micropipettes were pulled using a P-1000 micropipette puller, filled one-third of their volume with intracellular solution, and then mounted onto an electrode holder. • 3) Using a motorized micromanipulator (Scientifica-Double 1U), the recording electrode was brought into contact with the cell surface. […] The positive pressure was removed, and a negative pressure of 0.5 cm H2O was applied. It was observed that the sealing resistance increased rapidly until it reached the gigaseal. When the sealing resistance between the recording electrode and the cell membrane was >1 GΩ, negative pressure was applied to rupture the membrane to form the whole-cell recording mode. After the ruptured membrane stabilized, the membrane capacitance (Cs) and series resistance (Rs) were compensated. • 4) Stimulation procedure: the cell was voltage-clamped at −80 mV, depolarized to 40 mV for a duration of 200 ms, and then repolarized to −80 mV. Currents were recorded every 10 s. • 5) Kv1.3 potassium channel currents were recorded at room temperature prior to drug application. After the control current value reached a steady state (indicated by overlapping of the four most consecutive current traces), cumulative drug application was performed. The negative control (0.1% DMSO) was applied first, followed by […] of the drugs.
Raw Kv1.3 current peak data were extracted from PatchMaster software. The current inhibition rate was calculated as follows: Peak current inhibition rate=((1−(Peak current compound)/(Peak current vehicle))). […]

[1] = compound concentration 10 nM, peak current inhibition

Sequence of human Kv1.3 (hKv1.3) channels (P22001 whole entry): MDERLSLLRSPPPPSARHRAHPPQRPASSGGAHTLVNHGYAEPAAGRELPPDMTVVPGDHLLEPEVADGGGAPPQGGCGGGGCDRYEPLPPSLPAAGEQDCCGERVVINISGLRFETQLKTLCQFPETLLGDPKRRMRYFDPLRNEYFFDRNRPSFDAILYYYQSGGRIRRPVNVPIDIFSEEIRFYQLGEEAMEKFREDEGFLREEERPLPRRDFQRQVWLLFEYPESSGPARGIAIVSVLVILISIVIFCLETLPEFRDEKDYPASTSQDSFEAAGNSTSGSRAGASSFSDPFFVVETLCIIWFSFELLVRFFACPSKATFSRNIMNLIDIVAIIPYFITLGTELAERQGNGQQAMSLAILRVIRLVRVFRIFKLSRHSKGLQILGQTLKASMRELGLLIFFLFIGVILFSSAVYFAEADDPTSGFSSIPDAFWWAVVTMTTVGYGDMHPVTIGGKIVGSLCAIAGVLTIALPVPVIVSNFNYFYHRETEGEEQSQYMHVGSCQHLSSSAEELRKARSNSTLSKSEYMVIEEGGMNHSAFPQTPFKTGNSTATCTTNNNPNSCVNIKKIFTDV

Compound | inhibition at 0.01 µM [1] [%] | further results
4-(2,3-Dichloro-6-hydroxyphenyl)-1-(2,2-difluoro-3-hydroxypropyl)pyrrolidine-2-thione [Compound 121] |  | 10 nM inhibition rate (Kv1.3) [1]: A (A = inhibition ≥75%)
OCCCN1CC(c2c(O)ccc(Cl)c2Cl)CC1=S (racemic) [Compound 1, rac-4-(2,3-Dichloro-6-hydroxyphenyl)-1-(3-hydroxypropyl)pyrrolidine-2-thione] | 25 to 50 | 
NCCCN1CC(c2c(O)ccc(Cl)c2Cl)CC1=S (racemic) [Compound 2, rac-1-(3-Aminopropyl)-4-(2,3-dichloro-6-hydroxyphenyl)pyrrolidine-2-thione] | 50 to 75 | 
ONCCCN1CC(c2c(O)ccc(Cl)c2Cl)CC1=S (racemic) [Compound 26, rac-4-(2,3-Dichloro-6-hydroxyphenyl)-1-(3-(hydroxyamino)propyl)pyrrolidine-2-thione] | 0 to 5 | 
Oc1ccc(Cl)c(Cl)c1C1CC(=S)N(C2CC3(CNC3)C2)C1 (racemic) [Compound 34, rac-4-(2,3-Dichloro-6-hydroxyphenyl)-1-(2-azaspiro[3.3]heptan-6-yl)pyrrolidine-2-thione] | 25 to 50 | 
Oc1ccc(Cl)c(Cl)c1C1CC(=S)N(CCn2cccn2)C1 (racemic) [Compound 37, rac-1-(2-(1H-Pyrazol-1-yl)ethyl)-4-(2,3-dichloro-6-hydroxyphenyl)pyrrolidine-2-thione] | < 0 | 
Cn1cc(N2CC(c3c(O)ccc(Cl)c3Cl)CC2=S)cn1 (racemic) [Compound 40, 4-(2,3-dichloro-6-hydroxyphenyl)-1-(1-methyl-1H-pyrazol-4-yl)pyrrolidine-2-thione] | 50 to 75 | 
C=Cn1cc(N2CC(c3c(O)ccc(Cl)c3Cl)CC2=S)cn1 (racemic) [Compound 66, rac-4-(2,3-dichloro-6-hydroxyphenyl)-1-(1-vinyl-1H-pyrazol-4-yl)pyrrolidine-2-thione] | 25 to 50 | 
CS(=O)(=O)n1cc(N2CC(c3c(O)ccc(Cl)c3Cl)CC2=S)cn1 (racemic) [Compound 68, rac-4-(2,3-dichloro-6-hydroxyphenyl)-1-(1-(methylsulfonyl)-1H-pyrazol-4-yl)pyrrolidine-2-thione] | 25 to 50 | 
CS(=O)(=O)n1cc(N2CC(c3c(O)ccc(Cl)c3Cl)CC2=O)cn1 (racemic) [Compound 92, 4-(2,3-Dichloro-6-hydroxyphenyl)-1-(1-(methylsulfonyl)-1H-pyrazol-4-yl)pyrrolidin-2-one] | 50 to 75 | 
O=C1CC(c2c(O)ccc(Cl)c2Cl)CN1CCCNO (racemic) [Compound 103, 4-(2,3-Dichloro-6-hydroxyphenyl)-1-(3-(hydroxyamino)propyl)pyrrolidin-2-one] | ≥ 75 | 
Oc1ccc(Cl)c(Cl)c1C1CC(=S)N([C@H]2C[C@H](O)C2)C1 (mixture of isomers) [Compound 124, rac-4-(2,3-dichloro-6-hydroxyphenyl)-1-((1r,3r)-3-hydroxycyclobutyl)pyrrolidine-2-thione] | 25 to 50 | 
OCC1(CN2CC(c3c(O)ccc(Cl)c3Cl)CC2=S)CC1 (racemic) [Compound 125, rac-4-(2,3-Dichloro-6-hydroxyphenyl)-1-((1-(hydroxymethyl)cyclopropyl)methyl)pyrrolidine-2-thione] | 0 to 5 | 
OC[C@H]1C[C@H](N2CC(c3c(O)ccc(Cl)c3Cl)CC2=S)C1 (mixture of isomers) [Compound 126, rac-4-(2,3-dichloro-6-hydroxyphenyl)-1-((1r,3r)-3-(hydroxymethyl)cyclobutyl)pyrrolidine-2-thione] | 0 to 5 | 
OC[C@H]1C[C@@H](N2CC(c3c(O)ccc(Cl)c3Cl)CC2=S)C1 (mixture of isomers) [Compound 127, rac-4-(2,3-dichloro-6-hydroxyphenyl)-1-((1s,3s)-3-(hydroxymethyl)cyclobutyl)pyrrolidine-2-thione] | 0 to 5 | 
Oc1ccc(Cl)c(Cl)c1C1CC(=S)N(C[C@H]2C[C@@H](O)C2)C1 (mixture of isomers) [Compound 128, rac-4-(2,3-dichloro-6-hydroxyphenyl)-1-(((1s,3s)-3-hydroxycyclobutyl)methyl)pyrrolidine-2-thione] | 0 to 5 | 
Oc1ccc(Cl)c(Cl)c1C1CC(=S)N(C[C@H]2C[C@H](O)C2)C1 (mixture of isomers) [Compound 129, rac-4-(2,3-dichloro-6-hydroxyphenyl)-1-(((1r,3r)-3-hydroxycyclobutyl)methyl)pyrrolidine-2-thione] | 0 to 5 | 
OCCCCN1CC(c2c(O)ccc(Cl)c2Cl)CC1=S (racemic) [Compound 130, rac-4-(2,3-dichloro-6-hydroxyphenyl)-1-(4-hydroxybutyl)pyrrolidine-2-thione] | 25 to 50 | 
OC[C@@H](O)CN1CC(c2c(O)ccc(Cl)c2Cl)CC1=S (mixture of isomers) [Compound 131, rac-4-(2,3-dichloro-6-hydroxyphenyl)-1-((S)-2,3-dihydroxypropyl)pyrrolidine-2-thione] | 50 to 75 | IC50 (Hill fit of peak current inhibition): 30 to 100 nM
OCCCN1CC(c2c(O)ccc(F)c2Cl)CC1=S (racemic) [Compound 148, rac-4-(2-chloro-3-fluoro-6-hydroxyphenyl)-1-(3-hydroxypropyl)pyrrolidine-2-thione] | 0 to 5 | 
OCCCN1CC(c2c(O)ccc(Cl)c2F)CC1=S (racemic) [Compound 149, rac-4-(3-chloro-2-fluoro-6-hydroxyphenyl)-1-(3-hydroxypropyl)pyrrolidine-2-thione] | < 0 | 
Oc1ccc(Cl)c(Cl)c1C1CC(=S)N(c2cnn(C3CC3)c2)C1 (racemic) [Compound 150, rac-1-(1-cyclopropyl-1H-pyrazol-4-yl)-4-(2,3-dichloro-6-hydroxyphenyl)pyrrolidine-2-thione] | 50 to 75 | 
Oc1ccc(Cl)c(Cl)c1C1CC(=S)N(c2cnn3c2CCC3)C1 (racemic) [Compound 159, rac-4-(2,3-dichloro-6-hydroxyphenyl)-1-(5,6-dihydro-4H-pyrrolo[1,2-b]pyrazol-3-yl)pyrrolidine-2-thione] | 25 to 50 | 
O=C1CC(c2c(O)ccc(Cl)c2Cl)CN1c1cnn2c1CCC2 (racemic) [Compound 160, rac-4-(2,3-dichloro-6-hydroxyphenyl)-1-(5,6-dihydro-4H-pyrrolo[1,2-b]pyrazol-3-yl)pyrrolidin-2-one] | 25 to 50 | 
Oc1ccc(Cl)c(Cl)c1C1CC(=S)N(c2cnn3c2OCC3)C1 (racemic) [Compound 161, rac-4-(2,3-dichloro-6-hydroxyphenyl)-1-(2,3-dihydropyrazolo[5,1-b]oxazol-7-yl)pyrrolidine-2-thione] | 50 to 75 | 
Oc1ccc(Cl)c(Cl)c1C1CC(=S)N(c2cnn3c2OCCC3)C1 (racemic) [Compound 162, rac-4-(2,3-dichloro-6-hydroxyphenyl)-1-(6,7-dihydro-5H-pyrazolo[5,1-b][1,3]oxazin-3-yl)pyrrolidine-2-thione] | 0 to 5 | 
Oc1ccc(Cl)c(Cl)c1C1CC(=S)N(c2cnn3c2COCC3)C1 (racemic) [Compound 163, rac-4-(2,3-dichloro-6-hydroxyphenyl)-1-(6,7-dihydro-4H-pyrazolo[5,1-c][1,4]oxazin-3-yl)pyrrolidine-2-thione] | 25 to 50 | 
Oc1ccc(Cl)c(Cl)c1C1CC(=S)N(c2cnn(C3COC3)c2)C1 (racemic) [Compound 164, rac-4-(2,3-dichloro-6-hydroxyphenyl)-1-(1-(oxetan-3-yl)-1H-pyrazol-4-yl)pyrrolidine-2-thione] | 50 to 75 | 
